Reference: patent US4292317A, “1,4-Dihydro-quinoline-3-carboxylic acid derivatives, process for their preparation and compositions containing them” (Laboratorie Roger Bellon, priority 1977, dated 1981)
≈ marks a conversion by molar mass, not a printed value. Read-outs that look alike come from different tables or passages of the source.

Key:
[1] = system: Staph. aureus 50,774; test: Systemic infection in mice; format: in vivo; settings: Staphylococcus aureus, po, 336 h, mice, p.o. at infection and 6 hours later, Staph. aureus 50,774, 14 days; for ED50: read-out: ED50; for ED90: read-out: ED90
Description: (§1) The activity of the compounds according to the invention against systemic infections in mice, caused by Staphylococcus 50,774, Streptococcus pyogenes A 65, Pseudomonas aeruginosa No. 12 and Escherichia coli P 5101, has been studied.
(§2) The infections were set up by intraperitoneal injection of a suspension of the bacterial culture corresponding to the germ studied. The products were administered orally at the time of injection, and 6 hours later. […] Aureus and for 7 days for the other germs.
(§3) Oxolinic acid was used as the reference substance.

[2] = system: Escherichia coli P 5101; test: Systemic infection in mice; format: in vivo; settings: P5101, po, 168 h, mice, p.o. at infection and 6 hours later, E. coli P 5101, 7 days; for ED50: read-out: ED50; for ED90: read-out: ED90
Description: as §1, §2, §3

[3] = system: Pseudomonas aeruginosa No. 12; test: Systemic infection in mice; format: in vivo; settings: po, 168 h, mice, p.o. at infection and 6 hours later, P. aeruginosa No. 12, 7 days; for ED50: read-out: ED50; for ED90: read-out: ED90
Description: as §1, §2, §3

[4] = system: Strept. pyogenes A. 65; test: Systemic infection in mice; format: in vivo; settings: Streptococcus pyogenes, po, 168 h, mice, p.o. at infection and 6 hours later, Strept. pyogenes A. 65, 7 days; for ED50: read-out: ED50; for ED90: read-out: ED90
Description: as §1, §2, §3

[5] = system: Pr. vulgaris 12-53; test: M.I.C. in vitro, nutrient agar dilution; format: cell-based; settings: Proteus vulgaris, 1253, 18 h; Table III; Pr. vulgaris 12-53; read-out: M.I.C.
How it was run: (§4)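 Agar dilution, medium pH 6.8 post-autoclave (120° C.); compound 0.05–100 μg/cm^3, factor-2 series. Inoculum: 10^-3 dilution of 18 h broth culture, multipoint inoculator. 37° C., 18 h. MIC = lowest conc. inhibiting growth.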

[6] = system: Pr. mirabilis Nig; test: M.I.C. in vitro, nutrient agar dilution; format: cell-based; settings: Proteus mirabilis, 18 h; Table III; Pr. mirabilis Nig; read-out: M.I.C.
How it was run: as §4

[7] = system: Staph. 9.144; test: M.I.C. in vitro, nutrient agar dilution; format: cell-based; settings: 18 h; Table III; Staph. 9.144; read-out: M.I.C.
How it was run: as §4

[8] = system: Pr. morganii A.236; test: M.I.C. in vitro, nutrient agar dilution; format: cell-based; settings: Morganella morganii, 18 h; Table III; Pr. morganii A. 236; read-out: M.I.C.
How it was run: as §4

[9] = system: Esch. coli 54.127 O.M.S.; test: M.I.C. in vitro, nutrient agar dilution; format: cell-based; settings: Escherichia coli, 18 h; Table III; Esch. coli 54.127 O.M.S.; read-out: M.I.C.
How it was run: as §4

[10] = system: Esch. coli 111 B4; test: M.I.C. in vitro, nutrient agar dilution; format: cell-based; settings: Escherichia coli, 18 h; Table III; Esch. coli 111 B4
How it was run: as §4

[11] = system: S. enteritidis Danysz; test: M.I.C. in vitro, nutrient agar dilution; format: cell-based; settings: Salmonella enterica, 18 h; Table III; S. enteritidis Danysz; read-out: M.I.C.
How it was run: as §4

[12] = system: Sh. sonnei I.P.S.; test: M.I.C. in vitro, nutrient agar dilution; format: cell-based; settings: Shigella sonnei, 18 h
How it was run: as §4

[13] = system: Strepto A 561; test: M.I.C. in vitro, nutrient agar dilution; format: cell-based; settings: 18 h; Table III; Strepto A 561
How it was run: as §4

[14] = system: Arizona 6.211; test: M.I.C. in vitro, nutrient agar dilution; format: cell-based; settings: 18 h; Table III; Arizona 6.211; read-out: M.I.C.
How it was run: as §4

[15] = system: Esch. coli 95 I.S.M.; test: M.I.C. in vitro, nutrient agar dilution; format: cell-based; settings: Escherichia coli, 18 h; Table III; Esch. coli 95 I.S.M.; read-out: M.I.C.
How it was run: as §4

[16] = system: Bord. bronchis. 4.617; test: M.I.C. in vitro, nutrient agar dilution; format: cell-based; settings: 18 h; Table III; Bord. bronchis. 4.617; read-out: M.I.C.
How it was run: as §4

[17] = system: Staph. 209 P; test: M.I.C. in vitro, nutrient agar dilution; format: cell-based; settings: 18 h; Table III; Staph. 209 P; read-out: M.I.C.
How it was run: as §4

[18] = system: B. subtilis; test: M.I.C. in vitro, nutrient agar dilution; format: cell-based; settings: Bacillus subtilis, 18 h; Table III; B. Subtilis; read-out: M.I.C.
How it was run: as §4

[19] = system: Klebs. pneum. 10.031; test: M.I.C. in vitro, nutrient agar dilution; format: cell-based; settings: 18 h; Table III; Klebs. pneum. 10.031; read-out: M.I.C.
How it was run: as §4

[20] = system: Strepto D.M. 19; test: M.I.C. in vitro, nutrient agar dilution; format: cell-based; settings: 18 h; Table III; Strepto D.M. 19; read-out: M.I.C.
How it was run: as §4

[21] = system: S. oranienburg 1066; test: M.I.C. in vitro, nutrient agar dilution; format: cell-based; settings: Salmonella enterica, 18 h; Table III; S. oranienburg 1066; read-out: M.I.C.
How it was run: as §4

[22] = system: Serratia; test: M.I.C. in vitro, nutrient agar dilution; format: cell-based; settings: 18 h, Table III, read-out: M.I.C.
How it was run: as §4

[23] = system: Ps. aeruginosa A.22; test: M.I.C. in vitro, nutrient agar dilution; format: cell-based; settings: Pseudomonas aeruginosa, 18 h; Table III; Ps. aeruginosa A.22; read-out: M.I.C.
How it was run: as §4

[24] = system: Providentia 0223; test: M.I.C. in vitro, nutrient agar dilution; format: cell-based; settings: 18 h; Table III; Providentia 0223; read-out: M.I.C.
How it was run: as §4

[25] = system: Ps. aeruginosa 72.345; test: M.I.C. in vitro, nutrient agar dilution; format: cell-based; settings: Pseudomonas aeruginosa, 18 h; Table III; Pd. aeruginosa 72.345; read-out: M.I.C.
How it was run: as §4

[26] = system: Salm. typhi 0901; test: microbe, parasite or virus in culture; format: cell-based; settings: Salmonella enterica, 18 h; Table III; Salm. typhi 0901
How it was run: as §4

[27] = system: Staph. aureus 50,774; test: M.I.C. for germ used in experimental infection; format: cell-based; settings: Staphylococcus aureus, 18 h; Table 4; Staph. aureus 50,774; read-out: M.I.C.
Description: (§5) After sterilisation at 120° C., the pH was 6.8.
(§6) The minimum inhibitory concentrations (M.I.C.) were determined by dilution of the test compounds in this mixture, the concentration ranging from 0.05 to 100 μg/cm^3 in a geometric progression with a factor of 2.
(§7) The inoculation of the dishes was carried out by means of a multiple inoculator with 10^-3 dilutions of 18 hour old broth cultures.
(§8) The dishes were placed in an oven at 37° C. and the readings were taken afer an incubation time of 18 hours. The M.I.C. was taken as the lowest concentration which inhibited a culture.

[28] = system: Escherichia coli P 5101; test: M.I.C. for germ used in experimental infection; format: cell-based; settings: P5101, 18 h, Table 4, E. coli P 5101, read-out: M.I.C.
Description: as §5, §6, §7, §8

[29] = system: Pseudomonas aeruginosa No. 12; test: M.I.C. for germ used in experimental infection; format: cell-based; settings: 18 h, Table 4, P. aeruginosa No. 12, read-out: M.I.C.
Description: as §5, §6, §7, §8

[30] = system: Strept. pyogenes A. 65; test: M.I.C. for germ used in experimental infection; format: cell-based; settings: Streptococcus pyogenes, 18 h; Table 4; Strept. pyogenes A. 65; read-out: M.I.C.
Description: as §5, §6, §7, §8

[31] = in vivo; settings: mouse, mice

SMILES	ED50 [1] [mg/kg]	ED90 [1] [mg/kg]	ED50 [2] [mg/kg]	ED90 [2] [mg/kg]	ED50 [3] [mg/kg]	ED90 [3] [mg/kg]	ED50 [4] [mg/kg]	ED90 [4] [mg/kg]	MIC [5] [µg/mL]	MIC [6] [µg/mL]	MIC [7] [µg/mL]	MIC [8] [µg/mL]	MIC [9] [µg/mL]	MIC [10] [µg/mL]	MIC [11] [µg/mL]	MIC [13] [µg/mL]	MIC [14] [µg/mL]	MIC [15] [µg/mL]	MIC [16] [µg/mL]	MIC [17] [µg/mL]	other results
CCn1cc(C(=O)O)c(=O)c2cc(F)c(N3CCNCC3)cc21 [Example 22, 1-Ethyl-6-fluoro-4-oxo-7-piperazinyl-1,4-dihydro-quinoline-3-carboxylic acid]	20.6	44.1	4	10.4	17.7	25.9	> 100	> 100	0.05 (≈ 0.157 µM)	0.1 to 0.2 (≈ 0.313 to 0.626 µM)	0.2 to 0.4 (≈ 0.626 to 1.25 µM)	0.05 (≈ 0.157 µM)	0.2 (≈ 0.626 µM)	0.1 to 0.2 (≈ 0.313 to 0.626 µM)	0.2 (≈ 0.626 µM)	50 (≈ 157 µM)	0.2 (≈ 0.626 µM)	0.2 (≈ 0.626 µM)	6.25 to 12.5 (≈ 19.6 to 39.1 µM)	0.2 to 0.4 (≈ 0.626 to 1.25 µM)	MIC [12]: 0.01 to 0.02 µg/mL (≈ 0.0313 to 0.0626 µM); MIC [18]: 0.2 µg/mL (≈ 0.626 µM); MIC [19]: 0.1 to 0.2 µg/mL (≈ 0.313 to 0.626 µM); MIC [20]: 1.6 to 3.1 µg/mL (≈ 5.01 to 9.71 µM); MIC [21]: 6.2 µg/mL (≈ 19.4 µM); MIC [22]: 1 to 6.2 µg/mL (≈ 3.13 to 19.4 µM); MIC [23]: 0.4 to 0.8 µg/mL (≈ 1.25 to 2.51 µM); MIC [24]: 0.8 to 1.6 µg/mL (≈ 2.51 to 5.01 µM); MIC [25]: 0.4 to 0.8 µg/mL (≈ 1.25 to 2.51 µM); MIC [26]: 0.05 to 0.2 µg/mL (≈ 0.157 to 0.626 µM); MIC [27]: 0.78 µg/mL (≈ 2.44 µM); MIC [28]: 0.1 µg/mL (≈ 0.313 µM); MIC [29]: 0.78 µg/mL (≈ 2.44 µM); MIC [30]: 1.56 µg/mL (≈ 4.89 µM)
C=CCN1CCN(c2cc3c(cc2F)c(=O)c(C(=O)O)cn3CC)CC1 [Example 23, 7-(4-Allylpiperazinyl)-1-ethyl-6-fluoro-4-oxo-1,4-dihydro-quinoline-3-carboxylic acid]	5.2	17	2.9	5.2	13.3	26.9	64.7	130	0.2 to 0.4 (≈ 0.556 to 1.11 µM)	0.4 to 0.8 (≈ 1.11 to 2.23 µM)	0.2 (≈ 0.556 µM)	0.2 (≈ 0.556 µM)	0.1 to 0.8 (≈ 0.278 to 2.23 µM)	0.2 to 0.8 (≈ 0.556 to 2.23 µM)	0.4 (≈ 1.11 µM)	1.6 to 6.2 (≈ 4.45 to 17.3 µM)	0.2 to 0.8 (≈ 0.556 to 2.23 µM)	0.1 to 0.4 (≈ 0.278 to 1.11 µM)	3.12 (≈ 8.68 µM)	0.1 to 0.2 (≈ 0.278 to 0.556 µM)	MIC ([12]; Table III, Sh. sonnei I.P.S., read-out: M.I.C.): 0.1 to 0.2 µg/mL (≈ 0.278 to 0.556 µM); MIC [18]: 0.1 to 0.2 µg/mL (≈ 0.278 to 0.556 µM); MIC [19]: 0.1 to 0.2 µg/mL (≈ 0.278 to 0.556 µM); MIC [20]: 0.8 to 3.15 µg/mL (≈ 2.23 to 8.76 µM); MIC [21]: 6.2 to 12.5 µg/mL (≈ 17.3 to 34.8 µM); MIC [22]: 0.025 µg/mL (≈ 0.0696 µM); MIC [23]: 1.6 to 3.12 µg/mL (≈ 4.45 to 8.68 µM); MIC [24]: 1.6 to 6.2 µg/mL (≈ 4.45 to 17.3 µM); MIC [25]: 3.12 µg/mL (≈ 8.68 µM); MIC [26]: 0.1 to 0.4 µg/mL (≈ 0.278 to 1.11 µM); MIC [27]: 0.39 µg/mL (≈ 1.09 µM); MIC [28]: 0.39 µg/mL (≈ 1.09 µM); MIC [29]: 6.25 µg/mL (≈ 17.4 µM); MIC [30]: 3.13 µg/mL (≈ 8.71 µM); LD50 ([31]; iv): 177 mg/kg; LD50 ([31]; po): > 2000 mg/kg
